In PubChem BioAssay AID1418 (Emory University Molecular Libraries Screening Center, 2008):
Activity calls are given as the source filed them. No rule for the calls is given here.

Each compound was assayed against Induced myeloid leukemia cell differentiation protein Mcl-1 (Homo sapiens) (UniProt Q07820) (assay: blockers of Bid binding to Mcl-1 – biochemical, TR-FRET, dose response (AID 1418)). Conditions: Mcl-1/Bid peptide binding, TR-FRET (europium/Dy647), 2 hr.
Sequence of Induced myeloid leukemia cell differentiation protein Mcl-1 (Homo sapiens) (Q07820 whole entry, looked up): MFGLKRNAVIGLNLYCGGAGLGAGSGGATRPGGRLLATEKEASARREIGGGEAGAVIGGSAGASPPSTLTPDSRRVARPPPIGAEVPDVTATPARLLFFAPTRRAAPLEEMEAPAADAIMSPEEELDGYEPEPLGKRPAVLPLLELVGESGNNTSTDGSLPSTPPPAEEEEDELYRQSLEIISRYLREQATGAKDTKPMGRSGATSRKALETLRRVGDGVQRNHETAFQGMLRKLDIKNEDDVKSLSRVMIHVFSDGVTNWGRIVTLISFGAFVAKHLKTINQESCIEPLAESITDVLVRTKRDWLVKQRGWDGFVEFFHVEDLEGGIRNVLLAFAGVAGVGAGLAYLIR
For `Cc1ccc2[nH]c(=O)c(-c3nc4cc(C)ccn4c3NCc3ccco3)cc2c1`, the IC50 was 12.6 µM. In the case of `Cc1cccc(-n2c(SCC(=O)Nc3nnc(C)s3)nnc2-c2ccoc2C)c1`, the IC50 is reported as > 54 µM (inactive). With `Cc1cccc(NC(=O)c2cc(N3C(=O)CCC3=O)ccc2Cl)n1` the IC50 was > 54 µM (inactive). Work on `CC1=NOC(=O)/C1=C\c1ccc(-c2ccc(Cl)cc2Cl)o1` yielded an IC50 of 1.94 µM. In the case of `C#CCOCCOCCOCCNc1nc(N2CCN(C(=O)[C@H](Cc3cc4ccccc4[nH]3)n3cc([C@@H](N)C(C)CC)nn3)CC2)nc(N2CCN(C(=O)[C@H](Cc3cc4ccccc4[nH]3)n3cc([C@@H](N)Cc4ccc(O)cc4)nn3)CC2)n1` (some centres undefined), the IC50 is reported as > 54 µM (inactive). With `O=C(Nc1ccc(F)cc1)N1CCCN(c2ccc(C(F)(F)F)cn2)CC1` the IC50 was > 54 µM (inactive). For `O=c1c2ccccc2nc(CSc2nnnn2-c2ccccc2)n1-c1ccccc1`, the IC50 was 18.7 µM. With `COc1ccc(/C=C2\C(=O)NC(=S)N2C(=O)c2ccc(F)cc2)cc1` the IC50 was 8.97 µM. For `COc1cc(OC)cc(C(=O)N(CCCN2C(=O)c3cccc4cccc(c34)C2=O)c2cccc(OC)c2)c1`, the IC50 was > 54 µM (inactive). With `O=C1c2cccc3cc([N+](=O)[O-])cc(c23)C(=O)N1/N=C/c1ccc(O)cc1O` the IC50 was 0.82 µM. In the case of `COc1cc(C(=O)Nc2ccc3c(c2)C(=O)c2ccccc2C3=O)cc(OC)c1OC`, the IC50 is reported as 9.01 µM. With `CCn1c(C)cc(/C=C2\NC(=O)N(Cc3ccc(Cl)cc3)C2=O)c1C` the IC50 was 9.26 µM. `CCOC(=O)c1ccc(NS(=O)(=O)N2CCCCCC2)cc1` was tested, and the IC50 was > 54 µM (inactive). `Cn1c(SCc2nc3ccccc3s2)nnc1-c1ccc2c(c1)OCO2` was tested, and the IC50 was > 54 µM (inactive). `CC(NC(=O)NC1CCCCC1)C(c1cccs1)N1CCN(c2ccccc2)CC1` (centres undefined) was tested, and the IC50 was > 54 µM (inactive). With `Cc1cc(NC(=O)c2noc3c2CCc2ccccc2-3)no1` the IC50 was > 54 µM (inactive). With `CC(C)(C)C(O)C(Oc1ccc(Cl)cc1)n1cncn1` (centres undefined) the IC50 was > 54 µM (inactive). For `COc1cccc(/C=N/NC(=O)c2cc3cc([N+](=O)[O-])ccc3s2)c1O`, the IC50 was 1.58 µM. For `CN(C)CCCCOc1ccccc1-c1ccccc1`, the IC50 was > 54 µM (inactive). With `COc1ccc(OC)c(NC(=S)N(CCc2c(C)[nH]c3ccc(C)cc23)Cc2cccs2)c1` the IC50 was > 54 µM (inactive). `COC(=O)CN1C(C)=Nc2ccc(Br)cc2C1c1ccccc1` (centres undefined) was tested, and the IC50 was > 54 µM (inactive). For `COc1cccc2c(=O)c(C/C=C(/C)Cl)c(C)[nH]c12`, the IC50 was > 54 µM (inactive). `O=c1c2ccccc2nc(/C=C/c2cccnc2)n1Cc1ccccc1` gave an IC50 of 0.54 µM. With `COc1cccc2c1nc(C)c1cc(C)oc12` the IC50 was > 54 µM (inactive). For `Cc1nc2sc(C(c3cccs3)N3CCOCC3)c(O)n2n1` (centres undefined), the IC50 was > 54 µM (inactive). Work on `CCOc1ccc(-c2ccc(/C=C3/C(=N)N4C=CSC4=NC3=O)o2)c([N+](=O)[O-])c1` yielded an IC50 of 0.86 µM. In the case of `CCn1c(SCC(=O)NCc2ccco2)nnc1-c1ccc(N)cc1`, the IC50 is reported as > 54 µM (inactive). For `COc1cccc2cc(C(=O)Oc3ccc(NC(C)=O)cc3)c(=O)oc12`, the IC50 was > 54 µM (inactive). In the case of `NC(=O)N1CCN(C(=O)c2ccco2)CC1`, the IC50 is reported as > 54 µM (inactive). In the case of `CCCCCCCCCCCCCCCC(O)C(N)CO` (centres undefined), the IC50 is reported as > 54 µM (inactive). `O=C(O)c1ccc(N2C(=O)/C(=C/c3ccc(-c4ccc([N+](=O)[O-])cc4)o3)C=C2c2ccccc2)cc1` showed an IC50 of 1.42 µM. `CCOc1ccc(N/C(=C(/C(Cl)=C(Cl)Cl)[N+](=O)[O-])n2cncn2)cc1` was tested, and the IC50 was > 54 µM (inactive). In the case of `C=CCOC(=O)/C=C/C(=O)NC(N)=O`, the IC50 is reported as > 54 µM (inactive). For `C=CCn1c(O)c(C(C)=NCC2CCCO2)c(=O)[nH]c1=O` (centres undefined), the IC50 was 0.48 µM. In the case of `O=C(NCCc1csc(-c2cccnc2)n1)c1cccs1`, the IC50 is reported as > 54 µM (inactive). In the case of `O=C(c1ccccc1)N1CCN(C2CCCCCC2)CC1`, the IC50 is reported as > 54 µM (inactive). In the case of `Cc1ccc(NC(=O)CN2C(=O)S/C(=C/c3ccc(-c4cc(C(=O)O)ccc4C)o3)C2=O)cc1C`, the IC50 is reported as 2.69 µM. For `CSc1nc(N(CCO)CCO)c2sc3nc(-c4ccco4)c4c(c3c2n1)CCC4`, the IC50 was > 54 µM (inactive). `C#CCOCCOCCOCCNc1nc(N2CCN(C(=O)[C@H](CCC(=O)O)n3cc(C(N)CC(C)C)nn3)CC2)nc(N2CCN(C(=O)[C@H](CCC(=O)O)n3cc(C(N)[C@H](C)CC)nn3)CC2)n1` (some centres undefined) showed an IC50 of 1 µM. `COc1cc(/C=C(/C#N)c2nc3ccccc3c(=O)[nH]2)ccc1O` gave an IC50 of 1.15 µM. For `O=C(CCS(=O)(=O)c1ccccc1)Nc1ccccc1-c1nc2ccccc2s1`, the IC50 was > 54 µM (inactive). For `CC(=O)c1ccc(Oc2ccc(C(C)=O)cc2)cc1`, the IC50 was > 54 µM (inactive). For `CCOC(=O)NC(=O)/C(C#N)=C/c1ccc(N(C)C)cc1`, the IC50 was > 54 µM (inactive). For `CC1CCCC(C)N1CCNC(=O)C1CCN(S(=O)(=O)N2CCCCC2)CC1` (centres undefined), the IC50 was > 54 µM (inactive). With `NNc1nc(-c2ccccc2)cs1` the IC50 was 0.58 µM. In the case of `CCCC(=O)Nc1nnc(-c2cccc(OCC)c2)s1`, the IC50 is reported as > 54 µM (inactive). In the case of `CCc1ccc(CCC(=O)Nc2ccc(C)cc2C)o1`, the IC50 is reported as > 54 µM (inactive). In the case of `Cc1cccc(C)c1NC(=O)C1c2ccccc2Oc2ccccc21`, the IC50 is reported as > 54 µM (inactive). `Cc1sc(NC(=O)c2sc3nc4c(C)cccc4cc3c2N)c(C#N)c1C` gave an IC50 of 0.95 µM.
